In US5233031A, “Phosphoramidate analogs of 2'-deoxyuridine” (University of Rochester, priority 1991, dated 1993):
Like-named read-outs stand apart in the source and are kept apart here.

Legend:
Assay type in all cases: cell-based
B16 melanoma cells = experiment: Cytotoxicity against B16 melanoma cells (clonogenic assay); conditions: read-out: LC-99 (concentration of compound required to kill 99% of B16 melanoma cells)
Method: ^a Concentration of compound required to kill 99% of B16 melanoma
cells in a clonogenic assay. Cells were treated with the compound for 2
B16 cells in exponential growth (2-3×10^6 cells in 10 ml of serum-free MEM medium) were treated with drug for 2 hr. The cells were separated, washed, and resuspended in MEM medium supplemented with 10% fetal bovine serum. The cells were plated in 60-mm culture dishes at a density of 50-50,000 cells/plate (depending upon the drug concentration used initially) and then incubated for 8 days in a CO2 incubator at 37° C. The colonies were fixed and stained with 0.5% crystal violet in ethanol and counted.

L1210 leukemia cells [1] = experiment: Growth inhibition against L1210 leukemia cells in vitro; conditions: for IC50: Mus musculus
Method: In addition to the B16 melanoma cell assay summarized in Table I, compounds 1a-e, 5 and 7 were evaluated for growth inhibitory activity against L1210 leukemia cells. Stock solutions of the compounds were prepared in 95% ethanol, and serial dilutions of drug were prepared in ethanol such that 50 μl of drug solution added to 10 ml of cell suspension gave the desired final concentration. L1210 cells in exponential growth were suspended in Fischer's medium supplemented with 10% horse serum, 1% glutamine, and 1% antibiotic-antimycotic solution to give 10-ml volumes of cell suspension at a final density of 3-6×10^4 /ml. Appropriate volumes of the solutions of each compound were transferred to the cell suspensions, and incubation was continued for 2, 8, 24, or 48 hr. The cells were spun down, resuspended in fresh drug-free medium, and returned to the incubator, then counted with a Coulter Counter 48 hr after treatment with the compound.
^a Data represents an average of at least two experiments; L1210 cell
were treated with compound for 2, 8, 24 and 48 hr. The drugcontaining
medium was removed, cells were washed, complete medium was added, and the
cells were incubated for 48 hr total. Cell counts were obtained 48 hr
after the start of treatment.

L1210 leukemia cells [2] = experiment: Reversal of L1210 growth inhibition by addition of thymidine; conditions: 5 μM thymidine
Text: The relationship between potency and alkylating activity was confirmed by the synthesis and evaluation of the non-alkylating morpholino phosphoramidate 1e.

[3] = Mus musculus, B16, 2 hr treatment
[4] = L1210, 48 h, read-out: IC50, treatment time 48 hr
[5] = L1210, read-out: IC50, treatment time 2 hr
[6] = L1210, read-out: IC50, treatment time 8 hr
[7] = L1210, read-out: IC50, treatment time 24 hr

SMILES | IC99 (B16 melanoma cells; [3]) [µM] | IC50 (L1210 leukemia cells [1]; [4]) [nM] | IC50 (L1210 leukemia cells [1]; [5]) [nM] | IC50 (L1210 leukemia cells [1]; [6]) [nM] | IC50 (L1210 leukemia cells [1]; [7]) [nM] | other results
CC1CC(C)(C)NC(CCOP(=O)(OC[C@H]2O[C@@H](n3cc(F)c(=O)[nH]c3=O)C[C@@H]2O)N2CCOCC2)O1 (some centres unmarked) [Compound 1e, 5-Fluoro-2'-deoxy-5'-uridyl-[2-(4,4,6-trimethyltetrahydro-1,3-oxazin-2-yl)ethyl]-morpholinophosphoramidate] | 216 | 150 | 15000 | 5000 | 900 | potency compared with 5-FU (L1210 leukemia cells [1]; long treatment times): comparable in potency to 5-FU
Cc1cn([C@H]2C[C@H](O)[C@@H](COP(=O)(OCCC3NC(C)(C)CC(C)O3)N(CCBr)CCBr)O2)c(=O)[nH]c1=O (some centres unmarked) [Compound 8, Thymidyl-[2-(4,4,6-trimethyltetrahydro-1,3-oxazin-2-yl)ethyl]bis-(2-bromoethyl)phosphoramidate] | – | – | – | – | – | IC99 (B16 melanoma cells; 2 hr treatment): 120 µM
Cc1cn([C@H]2C[C@H](O)[C@@H](COP(=O)(OCCC3NC(C)(C)CC(C)O3)N3CCOCC3)O2)c(=O)[nH]c1=O (some centres unmarked) [Compound 3, Thymidyl-[2-(4,4,6-trimethyltetrahydro-1,3-oxazin-2-yl)ethyl]morpholinophosphoramidate] | 152 | – | – | – | – | –
CC1CC(C)(C)NC(CCOP(=O)(OC[C@H]2O[C@@H](n3ccc(=O)[nH]c3=O)C[C@@H]2O)N(C)CCBr)O1 (some centres unmarked) [Compound 5, 2'-Deoxy-5'-uridyl-[2-(4,4,-trimethyltetrahydro-1,3-oxazin-2-yl)ethyl]-N-methyl-N-(2-bromoethyl)phosphoramidate] | 318 | 425 | 20000 | 8200 | 1300 | –
CC1CC(C)(C)NC(CCOP(=O)(OC[C@H]2O[C@@H](n3cc(F)c(=O)[nH]c3=O)C[C@@H]2O)N(C)CCBr)O1 (some centres unmarked) [Compound 1a, 5-FIuoro-2'-deoxy-5'-uridyl-[2-(4,4,6-trimethyltetrahydro-1,3-oxazin-2-yl)ethyl]-N-methyl-N-(2-bromoethyl)phosphoramidate] | 100 | 2.5 | 120 | 50 | 18 | inhibition of cell proliferation (L1210 leukemia cells [1]; 1a: 2 hr contact time, iodo and tosyl analogs: compared with 1a): potent inhibitor of cell proliferation; potency relative to 5-FU (more potent) (L1210 leukemia cells [1]; treatment times of 2, 8, 24, and 48 hr): 1-2 orders of magnitude; inhibitory activity on addition of thymidine (L1210 leukemia cells [2]): completely blocked
CC1CC(C)(C)NC(CCOP(=O)(OC[C@H]2O[C@@H](n3ccc(=O)[nH]c3=O)C[C@@H]2O)N2CCOCC2)O1 (some centres unmarked) [Compound 2, 2'-Deoxy-5'-uridyl-[2-(4,4,6-trimethyltetrahydro-1,3-oxazin-2-yl)ethyl]morpholinophosphoramidate] | 190 | – | – | – | – | –
CC1CC(C)(C)NC(CCOP(=O)(OC[C@H]2O[C@@H](n3cc(F)c(=O)[nH]c3=O)C[C@@H]2O)N2CCCCC2)O1 (some centres unmarked) [Compound 4, 5-Fluoro-2'-deoxy-5'-uridyl-[2-(4,4,6-trimethyltetrahydro-1,3-oxazin-2-yl)ethyl]piperidinophosphoramidate] | 98 | – | – | – | – | –
CC1CC(C)(C)NC(CCOP(=O)(OC[C@H]2O[C@@H](n3cc(F)c(=O)[nH]c3=O)C[C@@H]2O)N(C)CCI)O1 (some centres unmarked) [Compound 1d, 5-Fluoro-2'deoxy-5'-uridyl-[2-(4,4,6-trimethyltetrahydro-1,3-oxazin-2-yl)ethyl]-N-methyl-N-(2-iodoethyl)phosphoramidate] | 95 | 2 | 190 | 75 | 6 | –
O=c1[nH]cc(F)c(=O)[nH]1 [5-Fluorouracil, reference compound] | – | – | – | – | – | IC50 (L1210 leukemia cells [1]; L1210, 2 hr treatment, counted 48 hr after start of treatment, average of at least two experiments, read-out: IC50, treatment time 2 hr): 2200 nM; IC50 (L1210 leukemia cells [1]; L1210, 8 hr treatment, counted 48 hr after start of treatment, average of at least two experiments, read-out: IC50, treatment time 8 hr): 630 nM; IC50 (L1210 leukemia cells [1]; L1210, 24 hr treatment, counted 48 hr after start of treatment, average of at least two experiments, read-out: IC50, treatment time 24 hr): 220 nM; IC50 (L1210 leukemia cells [1]; L1210, 48 hr treatment, average of at least two experiments, read-out: IC50, treatment time 48 hr): 125 nM
Cc1ccc(S(=O)(=O)OCCN(C)P(=O)(OCCC2NC(C)(C)CC(C)O2)OC[C@H]2O[C@@H](n3cc(F)c(=O)[nH]c3=O)C[C@@H]2O)cc1 (some centres unmarked) [Compound 1b] | 156 | 2.5 | 160 | 60 | 19 | –
Cc1cn([C@H]2C[C@H](O)[C@@H](COP(=O)(OCCC3NC(C)(C)CC(C)O3)N(C)CCBr)O2)c(=O)[nH]c1=O (some centres unmarked) [Compound 7, Thymidyl-[2-(4,4,-trimethyltetrahydro-1,3-oxazin-2-yl)ethyl]-N-methyl-N-(2-bromoethyl)phosphoramidate] | 165 | 590 | 13000 | 10500 | 7000 | –
CC1CC(C)(C)NC(CCOP(=O)(OC[C@H]2O[C@@H](n3cc(F)c(=O)[nH]c3=O)C[C@@H]2O)N(C)CCCl)O1 (some centres unmarked) [Compound 1c] | 308 | 3.5 | 300 | 160 | 25 | –
